From patent US9580390B2, “Indazole compounds as kinase inhibitors and method of treating cancer with same” (University Health Network, priority 2011, dated 2017)

Experiments:
[1] = system: colon cancer cells (HCT116); experiment: Cancer cell line growth inhibition (SRB assay); type: cell-based; conditions: Homo sapiens, HCT-116; HCT116 colon cancer cells, SRB assay; read-out: Cancer Cell Line GI50 Range HCT116
Procedure: Breast cancer cells (MDA-MB-231), colon cancer cells (HCT116) and ovarian cancer cells (PA-1) were seeded (1000 to 4000 in 80 μl per well depending on the cell growth rate) into 96 well plates 24 hours before compound overlay. Compounds were prepared as 10 mM stock solutions in 100% DMSO which were diluted with DMEM (Dulbecco's Modified Eagle's Medium) cell growth Medium (Invitrogen, Burlington, ON, Canada) containing 10% FBS (Fetal Bovine Serum) to concentrations ranging from 50 nM to 250 μM. Aliquots (20 μl) from each concentration were overlaid to 80 μl of the pre-seeded cells in the 96 well plates to make final concentrations of 10 nM to 50 μM. The cells were cultured for 5 days before the Sulforhodamine B assay (SRB) was performed to determine the compound's cell growth inhibition activity.
Sulforhodamine B (purchased from Sigma, Oakville, ON, Canada) is a water-soluble dye that binds to the basic amino acids of the cellular proteins. Thus, colorimetric measurement of the bound dye provides an estimate of the total protein mass that is related to the cell number. the cells are fixed in situ by gently aspirating off the culture media and adding 50 μl ice cold 10% Trichloroacetic Acid (TCA) per well and incubate at 4° C. for 30-60 min. The plates are washed with H2O five times and allowed to air dry for 5 min. Addition of 50 μl 0.4% (w/v) SRB solution in 1% (v/v) acetic acid to each well and incubation for 30 min at RT completes the staining reaction. Following staining, plates are washed four times with 1% acetic acid to remove unbound dye and then allowed to air dry for 5 min. The stain is solubilized with 100 μl of 10 mM Tris pH 10.5 per well. Absorbance is read at 570 nm.
The percentage (%) of relative growth inhibition was calculated by comparing to DMSO treated only cells (100%). GI50's were determined for compounds with cytotoxic activity. The GI50 was calculated using GraphPad PRISM software (GraphPad Software, Inc., San Diego, Calif., USA).

[2] = system: ovarian cancer cells (PA-1); experiment: Cancer cell line growth inhibition (SRB assay); type: cell-based; conditions: PA-1 ovarian cancer cells, SRB assay; read-out: Cancer Cell Line GI50 Range PA-1

## O=C(NC(c1ccccc1)C1CCC1)c1ccc2[nH]nc(-c3ccc(N4CCC(O)CC4)cc3)c2c1 (centres unmarked) [Example A100, N-(cyclobutyl(phenyl)methyl)-3-(4-(4-hydroxypiperidin-1-yl)phenyl)-1H-indazole-5-carboxamide]
[1]
  GI50: < 100 nM
[2]
  GI50: < 100 nM

## CO[C@@H](C(=O)Nc1ccc2[nH]nc(-c3ccc(O[C@@H]4CCN(C)C[C@@H]4F)cc3)c2c1)c1ccccc1 (relative stereo) [Example A135, (R)-N-(3-(4-(((3S,4R)-3-fluoro-1-methylpiperidin-4-yl)oxy)phenyl)-1H-indazol-5-yl)-2-methoxy-2-phenylacetamide]
[1]
  GI50: 100 to 500 nM
[2]
  GI50: 100 to 500 nM

## COC1CCN(c2ccc(-c3n[nH]c4ccc(NC(=O)C(c5ccsc5)N5CCCC5)cc34)cc2)CC1 (centres unmarked) [Example A116, N-(3-(4-(4-methoxypiperidin-1-yl)phenyl)-1H-indazol-5-yl)-2-(pyrrolidin-1-yl)-2-(thiophen-3-yl)acetamide]
[1]
  GI50: 100 to 500 nM
[2]
  GI50: 100 to 500 nM

## CN1CCC(Oc2ccc(-c3n[nH]c4ccc(NC(=O)C5OCCc6ccccc65)cc34)cc2)CC1 (centres unmarked) [Example A146, N-(3-(4-(1-Methylpiperidin-4-yloxy)phenyl)-1H-indazol-5-yl)isochroman-1-carboxamide]
[1]
  GI50: > 500 nM
[2]
  GI50: 100 to 500 nM

## CN1CCC(Oc2ccc(-c3n[nH]c4ccc(C(=O)NCc5ccccc5N5CCOCC5)cc34)cc2)CC1 [Example A108, 3-(4-(1-Methylpiperidin-4-yloxy)phenyl)-N-(2-morpholinobenzyl)-1H-indazole-5-carboxamide]
[1]
  GI50: 100 to 500 nM
[2]
  GI50: 100 to 500 nM

## COCCN1CCC(Oc2ccc(-c3n[nH]c4ccc(NC(=O)[C@H](OC)c5ccccc5)cc34)cc2)CC1 [Example A107, (R)-2-methoxy-N-(3-(4-((1-(2-methoxyethyl)piperidin-4-yl)oxy)phenyl)-1H-indazol-5-yl)-2-phenylacetamide]
[1]
  GI50: 100 to 500 nM
[2]
  GI50: 100 to 500 nM

## CCc1cccc(CC)c1NC(=O)Nc1ccc2[nH]nc(-c3ccc(C4CN(C)CCO4)cc3)c2c1 (centres unmarked) [Example A124, 1-(2,6-diethylphenyl)-3-(3-(4-(4-methylmorpholin-2-yl)phenyl)-1H-indazol-5-yl)urea]
[1]
  GI50: 100 to 500 nM
[2]
  GI50: 100 to 500 nM

## CN1CCN(C)c2ccc(-c3n[nH]c4ccc(NC(=O)C(c5ccsc5)N5CCCC5)cc34)cc2C1 (centres unmarked) [Example A93, N-(3-(1,4-dimethyl-2,3,4,5-tetrahydro-1H-benzo[e][1,4]diazepin-7-yl)-1H-indazol-5-yl)-2-(pyrrolidin-1-yl)-2-(thiophen-3-yl)acetamide]
[1]
  GI50: > 500 nM
[2]
  GI50: > 500 nM

## CN1CCC(Oc2ccc(-c3n[nH]c4ccc(NC(=O)C(c5ccsc5)N5CCCC5)cc34)cc2N(C)C)CC1 (centres unmarked) [Example A113, N-(3-(3-(dimethylamino)-4-((1-methylpiperidin-4-yl)oxy)phenyl)-1H-indazol-5-yl)-2-(pyrrolidin-1-yl)-2-(thiophen-3-yl)acetamide]
[1]
  GI50: < 100 nM
[2]
  GI50: < 100 nM

## COC(C(=O)Nc1ccc2[nH]nc(-c3ccc(N4CCC(O)CC4)cc3)c2c1)c1ccsc1 (centres unmarked) [Example A87, N-(3-(4-(4-hydroxypiperidin-1-yl)phenyl)-1H-indazol-5-yl)-2-methoxy-2-(thiophen-3-yl)acetamide]
[1]
  GI50: 100 to 500 nM
[2]
  GI50: 100 to 500 nM

## COc1cc(-c2n[nH]c3ccc(C(=O)NC(c4ccccc4)C4CC4)cc23)ccc1OC1CCN(C=O)CC1 (centres unmarked) [Example A205, N-(cyclopropyl(phenyl)methyl)-3-(4-((1-formylpiperidin-4-yl)oxy)-3-methoxyphenyl)-1H-indazole-5-carboxamide]
[1]
  GI50: 100 to 500 nM
[2]
  GI50: 100 to 500 nM

## CO[C@@H](C(=O)Nc1ccc2[nH]nc(-c3ccc(OCC4CCN(C)CC4)cc3)c2c1)c1ccccc1 [Example A145, (R)-2-methoxy-N-(3-(4-((1-methylpiperidin-4-yl)methoxy)phenyl)-1H-indazol-5-yl)-2-phenylacetamide]
[1]
  GI50: 100 to 500 nM
[2]
  GI50: 100 to 500 nM

## O=C(NC(c1ccccc1)C1CC1)c1ccc2[nH]nc(-c3ccc(OCCN4CCOCC4)cc3)c2c1 (centres unmarked) [Example A140, N-(cyclopropyl(phenyl)methyl)-3-(4-(2-morpholinoethoxy)phenyl)-1H-indazole-5-carboxamide]
[1]
  GI50: 100 to 500 nM
[2]
  GI50: 100 to 500 nM

## O=C(NC(c1ccccn1)C1CC1)c1ccc2[nH]nc(-c3ccc(OC4CN(C5COC5)C4)cc3)c2c1 (centres unmarked) [Example A209, N-(cyclopropyl(pyridin-2-yl)methyl)-3-(4-((1-(oxetan-3-yl)azetidin-3-yl)oxy)phenyl)-1H-indazole-5-carboxamide]
[1]
  GI50: 100 to 500 nM
[2]
  GI50: 100 to 500 nM

## O=CN1CCC(Oc2ccc(-c3n[nH]c4ccc(C(=O)NC(c5ccccc5)C5CC5)cc34)cc2)CC1 (centres unmarked) [Example A126, N-(cyclopropyl(phenyl)methyl)-3-(4-((1-formylpiperidin-4-yl)oxy)phenyl)-1H-indazole-5-carboxamide]
[1]
  GI50: 100 to 500 nM
[2]
  GI50: 100 to 500 nM

## CCc1cccc(CC)c1NC(=O)Nc1ccc2[nH]nc(-c3ccc(N4CCOCC4)cc3)c2c1 [Example A86, 1-(2,6-diethylphenyl)-3-(3-(4-morpholinophenyl)-1H-indazol-5-yl)urea]
[1]
  GI50: < 100 nM
[2]
  GI50: 100 to 500 nM

## COCCN1CCC(Oc2ccc(-c3n[nH]c4ccc(C(=O)N[C@H](COC)c5ccccc5)cc34)cc2)CC1 [Example A164, (S)-N-(2-methoxy-1-phenylethyl)-3-(4-((1-(2-methoxyethyl)piperidin-4-yl)oxy)phenyl)-1H-indazole-5-carboxamide]
[1]
  GI50: 100 to 500 nM
[2]
  GI50: 100 to 500 nM

## CCC(NC(=O)c1ccc2[nH]nc(-c3ccc(OC4CCN(CCOC)CC4)cc3)c2c1)c1ccccc1 (centres unmarked) [Example A153, 3-(4-((1-(2-methoxyethyl)piperidin-4-yl)oxy)phenyl)-N-(1-phenylpropyl)-1H-indazole-5-carboxamide]
[1]
  GI50: 100 to 500 nM
[2]
  GI50: 100 to 500 nM

## O=CN1CCC(Oc2ccc(-c3n[nH]c4ccc(C(=O)N[C@@H](c5ccccn5)C5CC5)cc34)cc2)CC1 [Example A203, (R)-N-(cyclopropyl(pyridin-2-yl)methyl)-3-(4-((1-formylpiperidin-4-yl)oxy)phenyl)-1H-indazole-5-carboxamide]
[1]
  GI50: 100 to 500 nM
[2]
  GI50: 100 to 500 nM

## COc1cc(-c2n[nH]c3ccc(C(=O)NC(c4ccccn4)C4CC4)cc23)ccc1OC1CCN(C2COC2)CC1 (centres unmarked) [Example A195, N-(cyclopropyl(pyridin-2-yl)methyl)-3-(3-methoxy-4-((1-(oxetan-3-yl)piperidin-4-yl)oxy)phenyl)-1H-indazole-5-carboxamide]
[1]
  GI50: 100 to 500 nM
[2]
  GI50: 100 to 500 nM

## CC[C@@H](NC(=O)c1ccc2[nH]nc(-c3ccc(OC4CCN(C5COC5)CC4)cc3)c2c1)c1ccccc1Cl [Example A192, (R)-N-(1-(2-chlorophenyl)propyl)-3-(4-((1-(oxetan-3-yl)piperidin-4-yl)oxy)phenyl)-1H-indazole-5-carboxamide]
[1]
  GI50: 100 to 500 nM
[2]
  GI50: 100 to 500 nM

## CN1CCC(Oc2cccc(-c3n[nH]c4ccc(NC(=O)C(c5ccsc5)N5CCCC5)cc34)c2)CC1 (centres unmarked) [Example A99, N-(3-(3-((1-methylpiperidin-4-yl)oxy)phenyl)-1H-indazol-5-yl)-2-(pyrrolidin-1-yl)-2-(thiophen-3-yl)acetamide]
[1]
  GI50: > 500 nM
[2]
  GI50: > 500 nM

## CN1CCC(Oc2ccc(-c3n[nH]c4ccc(C(=O)NC(c5ccsc5)C5CCC5)cc34)cc2)CC1 (centres unmarked) [Example A121, N-(cyclobutyl(thiophen-3-yl)methyl)-3-(4-((1-methylpiperidin-4-yl)oxy)phenyl)-1H-indazole-5-carboxamide]
[1]
  GI50: < 100 nM
[2]
  GI50: < 100 nM

## Cc1ccccc1C(NC(=O)c1ccc2[nH]nc(-c3ccc(N4CCOCC4)cc3)c2c1)C1CC1 (centres unmarked) [Example A119, N-(cyclopropyl(o-tolyl)methyl)-3-(4-morpholinophenyl)-1H-indazole-5-carboxamide]
[1]
  GI50: 100 to 500 nM
[2]
  GI50: 100 to 500 nM

## O=C(Nc1ccc2[nH]nc(-c3ccc(N4CC(O)C4)cc3)c2c1)C(c1ccsc1)N1CCCC1 (centres unmarked) [Example A120, N-(3-(4-(3-Hydroxyazetidin-1-yl)phenyl)-1H-indazol-5-yl)-2-(pyrrolidin-1-yl)-2-(thiophen-3-yl)acetamide]
[1]
  GI50: < 100 nM
[2]
  GI50: < 100 nM

## CN1CCC(Oc2ccc(-c3n[nH]c4ccc(C(=O)NCC(c5ccccc5)C5CCCC5)cc34)cc2)CC1 (centres unmarked) [Example A207, N-(2-cyclopentyl-2-phenylethyl)-3-(4-((1-methylpiperidin-4-yl)oxy)phenyl)-1H-indazole-5-carboxamide]
[1]
  GI50: 100 to 500 nM
[2]
  GI50: 100 to 500 nM

## CN1CCC(Oc2ccc(-c3n[nH]c4ccc(NC(=O)C5CCCc6ccccc65)cc34)cc2)CC1 (centres unmarked) [Example A18]
[1]
  GI50: 100 to 500 nM
[2]
  GI50: 100 to 500 nM

## CC(C)(O)C1CCN(c2ccc(-c3n[nH]c4ccc(NC(=O)C(c5ccsc5)N5CCCC5)cc34)cc2)CC1 (centres unmarked) [Example A111, N-(3-(4-(4-(2-hydroxypropan-2-yl)piperidin-1-yl)phenyl)-1H-indazol-5-yl)-2-(pyrrolidin-1-yl)-2-(thiophen-3-yl)acetamide]
[1]
  GI50: < 100 nM
[2]
  GI50: < 100 nM

## O=C(NC(c1ccccc1)C1CC1)c1ccc2[nH]nc(-c3ccc(N4CCC(O)CC4)cc3)c2c1 (centres unmarked) [Example A84, N-(cyclopropyl(phenyl)methyl)-3-(4-(4-hydroxypiperidin-1-yl)phenyl)-1H-indazole-5-carboxamide]
[1]
  GI50: < 100 nM
[2]
  GI50: 100 to 500 nM

## CN1CCC(Oc2ccc(-c3n[nH]c4ccc(C(=O)N[C@@H](CCO)c5ccccc5)cc34)cc2)CC1 [Example A125, (S)-N-(3-hydroxy-1-phenylpropyl)-3-(4-((1-methylpiperidin-4-yl)oxy)phenyl)-1H-indazole-5-carboxyamide]
[1]
  GI50: 100 to 500 nM
[2]
  GI50: 100 to 500 nM

## O=C(Nc1ccc2[nH]nc(-c3ccc(N4CCC(O)CC4)cc3)c2c1)C(c1ccsc1)N1CCCCC1 (centres unmarked) [Example A83, N-(3-(4-(4-hydroxypiperidin-1-yl)phenyl)-1H-indazol-5-yl)-2-(piperidin-1-yl)-2-(thiophen-3-yl)acetamide]
[1]
  GI50: < 100 nM
[2]
  GI50: 100 to 500 nM
